Laboratory results reported in EP0241232A1, “Isoxazolylethanol derivatives” (SHIONOGI SEIYAKU KABUSHIKI KAISHA, priority 1986, dated 1987).

How the values were obtained:
[1] = system: Candida albicans KE-2; assay: Therapeutic effect against experimental candidiasis in mice; assay type: in vivo; details: KE2, po, 120 h, mouse survival ratio on the 5th day after infection, Jcl-ICR female mouse, 50 mg/kg orally three times (0, 4, 24 hours)
Method: After Candida albicans KE-2 was incubated on Sabouraud's glucose agar at 28 °C for 48 hr., it was suspended in Sabouraud's glucose broth and the cells ([…]) were injected to a tail vein of Jcl-ICR female mouse (4 weeks age; weight : 18 - 20 g). A suspension of the test compound in 2 % gum arabic was orally administered three times, immediately after infection of the yeast ( 0 hour), after 4 hours and after 24 hours, as a dosage of 50 mg/kg. Non-treated group was used as control. Each eight mice per group was used in control group and treated group. All the mice in control group died within 48 hr. after infection. Therapeutic effect of the test compound was judged by mouse survival ratio on the 5th day after infection.

[2] = system: Erysiphe graminis f. sp. tritici; assay: Control by seed-soaking: powdery mildew in wheat; assay type: in vivo
Method: (§1) The test compound was dissolved in 0.2 ml of acetone and suspended in demineralized distilled water containing a small amount of spreader, to a concentration of 500 ppm. The suspension was further diluted to one quarter dilution with demineralized distilled water (containing a small amount of spreader) to give a suspension in 125 ppm. All seeds of oats, wheat and cucumber were soaked in these suspensions at room temperature for an hour and then the seeds were air-dried.
(§2) The seeds as described above were sown in plastic pots (diameter : 9 cm). For rust and powdery mildews, the pots were kept in a glasshouse for 1 - 3 weeks until the seeds grew to young plants. The young oats (10 - 20 plants per pot) were inoculated by dusting with spores of Puccinia coronata, and the wheat (10 - 20 plants per pot) was also inoculated by spraying with spores of Erysiphe graminis f. sp. tritici, and the cucumber (1 plant per pot) was also inoculated by spraying with spore suspension of Sphaerotheca fuliginea. These inoculated plants were further kept in a glasshouse for 10 - 14 days until assessment. For damping-off, the treated seeds were sown in paper pots (diameter : 7.5 cm; depth : 6 cm) which contained soil infested with Rhizoctonia solani by mixing sterilized soil and pre-cultured fungus. Then the pots were kept in a humid glasshouse at 25 - 32 ^*C.
(§3) Damping-off was observed 15 days after sowing, and disease degree and control effect were obtained from the following equations. [formula] [formula] where diseased seedlings included damping-off and unemerged'seeds due to infection. For the foliar diseases, disease development was observed 10 - 14 days after inoculation of spores, and control effect was obtained by the following index.

[3] = system: Rhizoctonia solani; assay: Control of cucumber damping-off by soil drench; assay type: in vivo; details: 30 ml per cup, judged 15 days after inoculation
Method: as §3
The test compound was dissolved in a small amount of acetone and suspended in demineralized distilled water containing a spreader, to a concentration of 125 ppm and 31 ppm. The soil sterilized by an autoclave was put into paper cups (diameter : 7.5 cm; depth : 6 cm) and cucumber seeds (c.v. : Matsukaze) were sown in the cups (10 seeds/pot). Then the soil surface was covered with the following soil containing pathogen. And then 30 ml of the formation of the test compound was applied to the soil in the cup.
Rhizoctonia solani incubated in a bran medium at 28 °C for 5 days was put into sterile soil and cultured for 24 hr. The inoculated soil was diluted with sterile soil to about 4 times volume. The soil surface in the cups containing cucumber seeds was covered with the soil containing Rhizoctonia solani.
Control effect was judged 15 days after inoculation and control percent was obtained as described in Experiment 3.

[4] = system: Sphaerotheca fuliginea; assay: Control of cucumber powdery mildew by foliar spray; assay type: in vivo; details: observed 10 days after inoculation; for Control Index Preventive Effect: inoculation 24 hr. after application; for Control Index Curative Effect: inoculation 24 hr. before application
Method: The test compound was dissolved in a small amount of acetone and suspended in demineralized distilled water containing a spreader, to a concentration of 7.8 ppm and 2.0 ppm. Young cucumber plants (c.v. Tsukuba-Shiroibo) of 2-leaf stage grown in pots were sprayed sufficiently with the suspension.
Spores of Sphaerotheca fuliginea cultured in cucumber plants were collected and suspended in distilled water. Inoculation was made by spraying with the spore suspension to the test plant of 24 hr. after application of the test compound (preventive control) or 24 hr. before application (curative control).
Development of the disease was observed 10 days after inoculation and control index was obtained as described in Experiment 3.

[5] = system: Puccinia coronata; assay: Control by seed-soaking: crown rust in oats; assay type: in vivo
Method: as §1, §2, §3

[6] = system: Sphaerotheca fuliginea; assay: Control by seed-soaking: powdery mildew in cucumber; assay type: in vivo
Method: as §1, §2, §3

[7] = system: Candida albicans KE-2; assay: Inhibition test against pseudomycelium formation of Candida albicans; assay type: cell-based; details: KE2, minimum effective concentration preventing typical pseudomycelium formation, Eagle-MEM + 20 % calf serum, 18 hours at 37 °C, read-out: Inhibitory Concentration of Pseudo-myselium Formation
Method: Candida albicans KE-2 was inoculated to Eagle-MEM medium (Nissan 2 made by Nissui Seiyaku, Ltd.) supplemented with 20 % calf serum so that its final inoculum of yeast cell might be 1 x 10^6 yeast cells per milliliter. The test compounds were added thereon in two fold dilution series. After incubation for 18 hours at 37 °C, the fungal growth in each drug concentration was smeared and fixed on a slide glass, and the presence or absence of the pseudomycelium formation was examined by a microscope following Giemsa staining. Minimum effective concentration was defined as the lowest concentration of the compound which prevented typical pseudomycelium formation.

[8] = system: Rhizoctonia solani; assay: Control by seed-soaking: Rhizoctonia damping-off in cucumber; assay type: in vivo; details: 360 h, seed-soaking, observed 15 days after sowing, control effect by equation, read-out: Control Index Rhizoctonia Damping-Off in Cucumber
Method: as §1, §2, §3

OC(Cn1cncn1)(c1ccc(Cl)cc1)c1ccon1 (stereo not drawn) [Ia - 2]
responders at 50 mg/kg [1]: 100% | Control Index Powdery Mildew in Wheat ([2]; 125 ppm): 100 | Control Index Powdery Mildew in Wheat ([2]; 500 ppm): 100 | Control ([3]; soil drench 31 ppm): 100% | Control ([3]; soil drench 125 ppm): 100% | Control Index Preventive Effect ([4]; foliar spray 2.0 ppm): 97 (Leaves covered with symptom less than 3 % area) | Control Index Curative Effect ([4]; foliar spray 2.0 ppm): 100 | Control Index Preventive Effect ([4]; foliar spray 7.8 ppm): 100 | Control Index Curative Effect ([4]; foliar spray 7.8 ppm): 100 | Control Index Crown Rust in Oats ([5]; 125 ppm): 70 (Leaves covered with symptom between 16 % and 45 % area) | Control Index Crown Rust in Oats ([5]; 500 ppm): 100 | Control Index Powdery Mildew in Cucumber ([6]; 125 ppm): 70 (Leaves covered with symptom between 16 % and 45 % area) | Control Index Powdery Mildew in Cucumber ([6]; 500 ppm): 90 (Leaves covered with symptom between 4 % and 15 % area) | minimal effective concentration [7]: 0.04 µg/mL | pest or weed control at 125 ppm [8]: 93% | pest or weed control at 500 ppm [8]: 100%

OC(Cn1cncn1)(c1ccon1)c1ccc(Cl)cc1Cl (stereo not drawn) [Ia - 3]
responders at 50 mg/kg [1]: 100% | Control Index Powdery Mildew in Wheat ([2]; 125 ppm): 70 (Leaves covered with symptom between 16 % and 45 % area) | Control Index Powdery Mildew in Wheat ([2]; 500 ppm): 100 | Control ([3]; soil drench 31 ppm): 100% | Control ([3]; soil drench 125 ppm): 100% | Control Index Preventive Effect ([4]; foliar spray 2.0 ppm): 100 | Control Index Curative Effect ([4]; foliar spray 2.0 ppm): 100 | Control Index Preventive Effect ([4]; foliar spray 7.8 ppm): 100 | Control Index Curative Effect ([4]; foliar spray 7.8 ppm): 100 | Control Index Crown Rust in Oats ([5]; 125 ppm): 97 (Leaves covered with symptom less than 3 % area) | Control Index Crown Rust in Oats ([5]; 500 ppm): 100 | Control Index Powdery Mildew in Cucumber ([6]; 125 ppm): 50 (Leaves covered with symptom between 46 % and 65 % area) | Control Index Powdery Mildew in Cucumber ([6]; 500 ppm): 70 (Leaves covered with symptom between 16 % and 45 % area) | minimal effective concentration [7]: 0.02 µg/mL | pest or weed control at 125 ppm [8]: 100% | pest or weed control at 500 ppm [8]: 94%

OC(Cn1cncn1)(c1ccon1)c1ccc(F)cc1F (stereo not drawn) [Ia - 4]
responders at 50 mg/kg [1]: 100% | Control Index Powdery Mildew in Wheat ([2]; 125 ppm): 50 (Leaves covered with symptom between 46 % and 65 % area) | Control Index Powdery Mildew in Wheat ([2]; 500 ppm): 100 | Control ([3]; soil drench 31 ppm): 100% | Control ([3]; soil drench 125 ppm): 100% | Control Index Preventive Effect ([4]; foliar spray 2.0 ppm): 97 (Leaves covered with symptom less than 3 % area) | Control Index Curative Effect ([4]; foliar spray 2.0 ppm): 100 | Control Index Preventive Effect ([4]; foliar spray 7.8 ppm): 100 | Control Index Curative Effect ([4]; foliar spray 7.8 ppm): 100 | Control Index Crown Rust in Oats ([5]; 125 ppm): 50 (Leaves covered with symptom between 46 % and 65 % area) | Control Index Crown Rust in Oats ([5]; 500 ppm): 97 (Leaves covered with symptom less than 3 % area) | Control Index Powdery Mildew in Cucumber ([6]; 125 ppm): 50 (Leaves covered with symptom between 46 % and 65 % area) | Control Index Powdery Mildew in Cucumber ([6]; 500 ppm): 70 (Leaves covered with symptom between 16 % and 45 % area) | minimal effective concentration [7]: 0.16 µg/mL | pest or weed control at 125 ppm [8]: 53% | pest or weed control at 500 ppm [8]: 86%
